{"source": "patent US12459922B2", "about": "(Gilead Sciences, Inc., priority 2022, dated 2025)", "note": "pEC50: −log10 of the molar value.", "data": [{"test_system": "endogenous cellular STAT1 (phosphorylated at Tyr701) in NCI-H1373 cells", "assay": "Phospho-STAT1 (Tyr701) LANCE Ultra TR-FRET Detection Assay", "format": "cell-based", "conditions": "Homo sapiens, NCI-H1373, 48 h, phospho-STAT1 (Tyr701) induction, read-out: NH1373 pSTAT1 EC50", "method": "Phospho-STAT1 (Tyr701 LANCE Ultra TR-FRET Detection Assay\nd. LANCE Ultra phospho-STAT1 (Tyr701) kits are designed for the detection of phosphorylated STAT1 in cell lysates using a simple, homogeneous LANCE Ultra sandwich assay (Cat. #TRF4028M). This assay is intended for assessing compound induction of endogenous levels of cellular STAT1 (phosphorylated at Tyr701) in NCI-H1373 cells. The NCI-H1373 cells are cultured in RPMI 1640 media containing 10% heat inactivated FBS, GlutaMAX, 1% Penicillin-Streptomycin. An Echo acoustic liquid handler is used to transfer 60 nanoliters of compound dilutions using the Echo Qualified, 384-well polypropylene microplate clear flat bottom source plates into a Greiner (#781080) cell culture microplate. NCI-H1373 cells are seeded into these compound-spotted culture plates at 30,000 cells/well in a 60 uL volume in growth media. The plates are incubated in a 5% CO2 humidified incubator at 37° C. for 48 hours. […] After spinning the plate down at 300 rpm for 1 min, the plate is read on an EnVision plate reader set up for Eu3+ Cryptate and fluorescence emission is measured at two different wavelengths (665 nm and 620 nm). The HTRF ratio is then calculated […] for each well to determine the amount of pSTAT1 in the cell lysate, and the data is then normalized to 10 uM GS-1154611 positive and DMSO negative controls.", "values": [{"compound": "COc1cnc(-c2cc3ccn(CCC[C@H](C)Nc4cn[nH]c(=O)c4C(F)(F)F)c(=O)c3cc2F)nc1N", "note": "[Example 102, 6-(4-amino-5-methoxy-pyrimidin-2-yl)-7-fluoro-2-[(4S)-4-[[6-oxo-5-(trifluoromethyl)-1H-pyridazin-4-yl]amino]pentyl]isoquinolin-1-one]", "pEC50": 8.08}, {"compound": "C[C@@H](CCCn1ccc2cc(-c3ncc(F)c(N)n3)c(F)cc2c1=O)Nc1cn[nH]c(=O)c1C(F)(F)F", "note": "[Example 103, 6-(4-amino-5-fluoro-pyrimidin-2-yl)-7-fluoro-2-[(4S)-4-[[6-oxo-5-(trifluoromethyl)-1H-pyridazin-4-yl]amino]pentyl]isoquinolin-1-one]", "pEC50": 7.40}, {"compound": "C[C@@H](CCCn1ccc2cc(-c3nc(N)ncc3C(F)F)c(F)cc2c1=O)Nc1cn[nH]c(=O)c1C(F)(F)F", "note": "[Example 105, 6-[2-amino-5-(difluoromethyl)pyrimidin-4-yl]-7-fluoro-2-[(4S)-4-[[6-oxo-5-(trifluoromethyl)-1H-pyridazin-4-yl]amino]pentyl]isoquinolin-1-one]", "pEC50": 6.33}, {"compound": "CNc1nc(-c2cc3ccn(CCC[C@H](C)Nc4cn[nH]c(=O)c4C(F)(F)F)c(=O)c3cc2F)ncc1C(F)(F)F", "note": "[Example 106, 7-fluoro-6-[4-(methylamino)-5-(trifluoromethyl)pyrimidin-2-yl]-2-[(4S)-4-[[6-oxo-5-(trifluoromethyl)-1H-pyridazin-4-yl]amino]pentyl]isoquinolin-1-one]", "pEC50": 8.64}, {"compound": "C[C@@H](CCCn1ccc2cc(-c3ncc(C4CC4)c(N)n3)c(F)cc2c1=O)Nc1cn[nH]c(=O)c1C(F)(F)F", "note": "[Example 107, 6-(4-amino-5-cyclopropyl-pyrimidin-2-yl)-7-fluoro-2-[(4S)-4-[[6-oxo-5-(trifluoromethyl)-1H-pyridazin-4-yl]amino]pentyl]isoquinolin-1-one]", "pEC50": 8.65}, {"compound": "C[C@@H](CCCn1cnc2cc(-c3ncc(C(F)F)c(N)n3)c(F)cc2c1=O)Nc1cn[nH]c(=O)c1C(F)(F)F", "note": "[Example 108, 7-[4-amino-5-(difluoromethyl)pyrimidin-2-yl]-6-fluoro-3-[(4S)-4-[[6-oxo-5-(trifluoromethyl)-1H-pyridazin-4-yl]amino]pentyl]quinazolin-4-one]", "pEC50": 7.53}, {"compound": "COc1cnc(-c2cc3ccn(CCC[C@H](C)Nc4cn[nH]c(=O)c4C(F)(F)F)c(=O)c3c(F)c2F)nc1N", "note": "[Example 109, 6-(4-amino-5-methoxy-pyrimidin-2-yl)-7,8-difluoro-2-[(4S)-4-[[6-oxo-5-(trifluoromethyl)-1H-pyridazin-4-yl]amino]pentyl]isoquinolin-1-one]", "pEC50": 8.07}, {"compound": "C[C@@H](CCCn1ccc2cc(-c3ncc(C#N)c(N)n3)c(F)c(F)c2c1=O)Nc1cn[nH]c(=O)c1C(F)(F)F", "note": "[Example 110, 4-amino-2-[7,8-difluoro-1-oxo-2-[(4S)-4-[[6-oxo-5-(trifluoromethyl)-1H-pyridazin-4-yl]amino]pentyl]-6-isoquinolyl]pyrimidine-5-carbonitrile]", "pEC50": 7.87}, {"compound": "C[C@@H](CCCn1ccc2cc(-c3ncc([N+](=O)[O-])c(N)n3)c(F)cc2c1=O)Nc1cn[nH]c(=O)c1C(F)(F)F", "note": "[Example 111, 6-(4-amino-5-nitro-pyrimidin-2-yl)-7-fluoro-2-[(4S)-4-[[6-oxo-5-(trifluoromethyl)-1H-pyridazin-4-yl]amino]pentyl]isoquinolin-1-one]", "pEC50": 8.18}, {"compound": "C[C@@H](CCCn1ccc2cc(-c3ncc4c(n3)NCC4(C)C)c(F)cc2c1=O)Nc1cn[nH]c(=O)c1C(F)(F)F", "note": "[Example 112, 6-(5,5-dimethyl-6,7-dihydropyrrolo[2,3-d]pyrimidin-2-yl)-7-fluoro-2-[(4S)-4-[[6-oxo-5-(trifluoromethyl)-1H-pyridazin-4-yl]amino]pentyl]isoquinolin-1-one]", "pEC50": 8.68}, {"compound": "C[C@@H](CCCn1ccc2cc(-c3ncc(C(F)F)c(N)n3)c(F)c(F)c2c1=O)Nc1cn[nH]c(=O)c1C(F)(F)F", "note": "[Example 113, 6-[4-amino-5-(difluoromethyl)pyrimidin-2-yl]-7,8-difluoro-2-[(4S)-4-[[6-oxo-5-(trifluoromethyl)-1H-pyridazin-4-yl]amino]pentyl]isoquinolin-1-one]", "pEC50": 8.16}, {"compound": "C[C@@H](CCCn1ccc2cc(-c3nc(N)ncc3C(F)F)c(F)c(F)c2c1=O)Nc1cn[nH]c(=O)c1C(F)(F)F", "note": "[Example 114, 6-[2-amino-5-(difluoromethyl)pyrimidin-4-yl]-7,8-difluoro-2-[(4S)-4-[[6-oxo-5-(trifluoromethyl)-1H-pyridazin-4-yl]amino]pentyl]isoquinolin-1-one]", "pEC50": 6.07}, {"compound": "CNc1nc(-c2cc3ncn(CCC[C@H](C)Nc4cn[nH]c(=O)c4C(F)(F)F)c(=O)c3cc2F)ncc1C(F)(F)F", "note": "[Example 115, 6-fluoro-7-[4-(methylamino)-5-(trifluoromethyl)pyrimidin-2-yl]-3-[(4S)-4-[[6-oxo-5-(trifluoromethyl)-1H-pyridazin-4-yl]amino]pentyl]quinazolin-4-one]", "pEC50": 8.47}, {"compound": "C[C@@H](CCCn1cnc2cc(-c3ncc(C(F)(F)F)c(NC4CC4)n3)c(F)cc2c1=O)Nc1cn[nH]c(=O)c1C(F)(F)F", "note": "[Example 116, 7-[4-(cyclopropylamino)-5-(trifluoromethyl)pyrimidin-2-yl]-6-fluoro-3-[(4S)-4-[[6-oxo-5-(trifluoromethyl)-1H-pyridazin-4-yl]amino]pentyl]quinazolin-4-one]", "pEC50": 8.17}, {"compound": "CCNc1nc(-c2cc3ncn(CCC[C@H](C)Nc4cn[nH]c(=O)c4C(F)(F)F)c(=O)c3cc2F)ncc1C(F)(F)F", "note": "[Example 117, 7-[4-(ethylamino)-5-(trifluoromethyl)pyrimidin-2-yl]-6-fluoro-3-[(4S)-4-[[6-oxo-5-(trifluoromethyl)-1H-pyridazin-4-yl]amino]pentyl]quinazolin-4-one]", "pEC50": 8.28}, {"compound": "C[C@@H](CCCn1ccc2cc(-c3ncc4c(n3)NCCO4)c(F)cc2c1=O)Nc1cn[nH]c(=O)c1C(F)(F)F", "note": "[Example 118, 6-(7,8-dihydro-6H-pyrimido[5,4-b] [1,4]oxazin-2-yl)-7-fluoro-2-[(4S)-4-[[6-oxo-5-(trifluoromethyl)-1H-pyridazin-4-yl]amino]pentyl]isoquinolin-1-one]", "pEC50": 8.01}, {"compound": "C[C@@H](CCCn1ccc2cc(-c3ncc(C(F)(F)F)c(N4CC(C#N)C4)n3)c(F)cc2c1=O)Nc1cn[nH]c(=O)c1C(F)(F)F", "note": "[Example 119, (S)-1-(2-(7-fluoro-1-oxo-2-(4-((6-oxo-5-(trifluoromethyl)-1,6-dihydropyridazin-4-yl)amino)pentyl)-1,2-dihydroisoquinolin-6-yl)-5-(trifluoromethyl)pyrimidin-4-yl)azetidine-3-carbonitrile]", "pEC50": 8.47}, {"compound": "O=c1[nH]ncc(N2CCC[C@H]2CCCn2ccc3cc(-c4ncc(C(F)(F)F)cn4)c(F)cc3c2=O)c1C(F)(F)F", "note": "[Example 120, (S)-7-fluoro-2-(3-(1-(6-oxo-5-(trifluoromethyl)-1,6-dihydropyridazin-4-yl)pyrrolidin-2-yl)propyl)-6-(5-(trifluoromethyl)pyrimidin-2-yl)isoquinolin-1(2H)-one]", "pEC50": 8.01}, {"compound": "Nc1nc(-c2cc3ccn(CCC[C@@H]4CCCN4c4cn[nH]c(=O)c4C(F)(F)F)c(=O)c3cc2F)ncc1C(F)(F)F", "note": "[Example 121, (S)-6-(4-amino-5-(trifluoromethyl)pyrimidin-2-yl)-7-fluoro-2-(3-(1-(6-oxo-5-(trifluoromethyl)-1,6-dihydropyridazin-4-yl)pyrrolidin-2-yl)propyl)isoquinolin-1(2H)-one]", "pEC50": 8.29}, {"compound": "COc1cnc(-c2cc3ccn(CCC[C@@H]4CCCN4c4cn[nH]c(=O)c4C(F)(F)F)c(=O)c3cc2F)nc1N", "note": "[Example 122, (S)-6-(4-amino-5-methoxypyrimidin-2-yl)-7-fluoro-2-(3-(1-(6-oxo-5-(trifluoromethyl)-1,6-dihydropyridazin-4-yl)pyrrolidin-2-yl)propyl)isoquinolin-1(2H)-one]", "pEC50": 8.09}, {"compound": "Nc1nc(-c2cc3ccn(CC[C@H]4CC[C@@H]4Nc4cn[nH]c(=O)c4C(F)(F)F)c(=O)c3cc2F)ncc1C(F)(F)F", "note": "[Example 123, 6-(4-amino-5-(trifluoromethyl)pyrimidin-2-yl)-7-fluoro-2-(2-((1R,2S)-2-((6-oxo-5-(trifluoromethyl)-1,6-dihydropyridazin-4-yl)amino)cyclobutyl)ethyl)isoquinolin-1(2H)-one]", "pEC50": 8.20}, {"compound": "C[C@@H](CCCn1cnc2cc(-c3ncc(C(F)(F)F)c(N4CC(O)C4)n3)c(F)cc2c1=O)Nc1cn[nH]c(=O)c1C(F)(F)F", "note": "[Example 124, (S)-6-fluoro-7-(4-(3-hydroxyazetidin-1-yl)-5-(trifluoromethyl)pyrimidin-2-yl)-3-(4-((6-oxo-5-(trifluoromethyl)-1,6-dihydropyridazin-4-yl)amino)pentyl)quinazolin-4(3H)-one]", "pEC50": 7.94}, {"compound": "C[C@@H](CCCn1cnc2cc(-c3ncc(C#N)c(N)n3)c(F)cc2c1=O)Nc1cn[nH]c(=O)c1C(F)(F)F", "note": "[Example 125, (S)-4-amino-2-(6-fluoro-4-oxo-3-(4-((6-oxo-5-(trifluoromethyl)-1,6-dihydropyridazin-4-yl)amino)pentyl)-3,4-dihydroquinazolin-7-yl)pyrimidine-5-carbonitrile]", "pEC50": 7.07}]}]}
